The text below walks through data of patent US11974988B2, “Neuroprotective compositions and methods of using the same” (The Board of Supervisors of Louisiana State Univer …, priority 2018, dated 2024).

In brackets after ≈: the same amount, converted by molar mass. Entries after “also recorded” stand apart in the source; their conditions may differ. Where two headings read alike, the source gives them in different places.

Data set [1] deals with activity-regulated Gln/MeAIB transport (SNAT activity) in hippocampal neurons. Nature of the data set: Activity-regulated (spontaneous, 4-AP- or K+-stimulated) [14C]-MeAIB transport in primary hippocampal neurons. To be noted: for inhibition at 10 µM / IC50: Rattus norvegicus, Hippocampal neuron; for inhibition at 10 µM: read-out: block / inhibition of transport activity; for Active (annotation beside the compound name: active vs inactive derivatives): Table 1: SKA-41, and active and inactive derivatives; for potency to inhibit activity-regulated MeAIB transport relative to a comparator, in words: spontaneous and 4-AP stimulated transport; for reduction of activity-regulated Gln/MeAIB transport after preconditioning: brief exposure (KCl 45 mM, Glu or NMDA), transport measured after 24 hr. In kind it is cell-based, rat. On the set-up: block of transport activity: dose or concentration left out as unconfirmed.

Data set [2] can be described thus: Max. solubility (Table 1). In kind it is physicochemical.
Where [3] appears, read: hippocampal neurons in vitro, 14C-MeAIB 20 μM, read-out: IC50 to inhibit activity-regulated Gln/MeAIB transport.
Where [4] appears, read: 4-AP-stimulated (depolarization) [14C]-MeAIB uptake, DIV16, n in brackets, read-out: SNAT Activity IC50, 4-AP.
Setting [5] is: spontaneous [14C]-MeAIB uptake, DIV 19, n in brackets, read-out: SNAT Activity IC50, Spont.

With `Cc1ccc(-c2csc(N)n2)c2ccccc12` [SKA-190, 4-(4-Methylnaphthalen-1-yl)thiazol-2-amine], in data set [1], the “block of transport activity” value was 90%, the inhibition at 10 µM is 90% and the “Active (annotation beside the compound name: active vs inactive derivatives)” value is recorded as “SKA-190 Active”. In addition, the “inhibition of spontaneous activity-regulated 14C-MeAIB transport, in words” value (“inhibition … in words” below) in data set [1] (screens, 10 μM, GABA 2 mM) is listed as “blocked spontaneous transport activity; also recorded: inhibited spontaneous transport activity”. This compound also gave a solubility in data set [2] of 50 µM (≈ 12 µg/mL).

`c1ccc(Nc2nc(-c3ccccc3)cs2)cc1` [SKA-292, N,4-Diphenylthiazol-2-amine] came in with a melting point of 135 to 137 °C. The compound also yielded a solubility in data set [2] of 25 µM (≈ 6.31 µg/mL).

For the compound `FC(F)(F)c1cccc(Nc2nc(-c3cccc4ccccc34)cs2)c1` [SKA-251, 4-(Naphthalen-1-yl)-N-(3-(trifluoromethyl)phenyl)thiazol-2-amine], the melting point was 135 °C. The compound also displayed a solubility in data set [2] of 10 µM (≈ 3.7 µg/mL).

In the case of `CCCCCCCCCCCCCC(=O)O[C@@H]1[C@@H](C)[C@@]2(O)[C@@H](C=C(CO)C[C@]3(O)C(=O)C(C)=C[C@@H]23)[C@@H]2C(C)(C)[C@]12OC(C)=O` [PMA, phorbal myristate acetate, reference compound], the “stimulation of 14C-MeAIB transport” value in data set [1] (PMA 10 min prior to KCl (60 mM) depolarization) is “two-fold”.

With `CN[C@@H]1C[C@H]2O[C@@](C)([C@@H]1OC)n1c3ccccc3c3c4c(c5c6ccccc6n2c5c31)C(=O)NC4` [staurosporine, reference compound], the “effect on PMA stimulation of 14C-MeAIB transport” value in data set [1] (staurosporine 200 nM) is reported as “abolished”.

Turning to `Nc1nc(-c2ccc3ccccc3c2)cs1` [SKA-76, 4-(Naphthalen-2-yl)thiazol-2-amine], in data set [1], the inhibition at 10 µM was greater than 50% and the “potency to inhibit activity-regulated MeAIB transport relative to a comparator, in words” value is recorded as “much less potent than riluzole”. Also, the “inhibition … in words” value in data set [1] (screens, 10 μM, GABA 2 mM) is “inhibited spontaneous transport activity”. The same compound yielded a solubility in data set [2] of 25 µM (≈ 5.66 µg/mL).

Take `Nc1nnc(-c2cccc(Cl)c2Cl)c(N)n1` [lamotrigine, reference compound]: the IC50 in data set [1] (setting [3]) came to 20 µM.

Take `Nc1nc(-c2ccc3ccccc3c2)c(F)s1`: in data set [1], the “fold difference 4-AP IC50 over Spont IC50” value (“fold difference 4-AP IC50” for short) was found to be 1.3 x. Further, the IC50 in data set [1] (setting [4]) was 17.9 µM; in data set [1] (setting [5]) it was 13.3 µM.

Regarding `Nc1nc(-c2ccsc2)cs1` [SKA-94], in data set [1] (screens, 10 μM, GABA 2 mM), the “inhibition … in words” value is “inactive”. This compound showed a solubility in data set [2] of 100 µM (≈ 18.2 µg/mL).

Consider `Nc1nc(-c2cccc3ccccc23)c(Cl)s1` [drawing 70], for which the “fold difference 4-AP IC50” value in data set [1] is given as 4.3 x. Further, the IC50 came to 5.2 µM in data set [1] (setting [4]) and 1.2 µM in data set [1] (setting [5]).

As to `Nc1nc(-c2ccc3ccccc3c2)c(Cl)s1` [SKA-379, 5-Chloro-4-(naphthalen-2-yl)thiazol-2-amine], in data set [1], the “potency to inhibit activity-regulated MeAIB transport relative to a comparator, in words” value was “as active as SKA-219 and SKA-220, respectively”.

Turning to `Cc1ccc2cc(-c3csc(N)n3)ccc2c1` [SKA-198, 4-(6-Methylnaphthalen-2-yl)thiazol-2-amine], the melting point lay in the range of 178 to 179 °C. The inhibition at 10 µM in data set [1] was greater than 50%. Also, the “inhibition … in words” value in data set [1] (screens, 10 μM, GABA 2 mM) is given as “inhibited spontaneous transport activity”. In data set [2], this compound came in with a solubility of 50 µM (≈ 12 µg/mL).

`Cc1ccc(-c2csc(N)n2)c2ccccc12` [drawing 63]: the “fold difference 4-AP IC50” value in data set [1] is given as 4.5 x. The IC50 in data set [1] (setting [4]) came to 11.7 µM; in data set [1] (setting [5]), 2.6 µM.

Take `O=C1NC(=O)C(c2ccccc2)(c2ccccc2)N1` [phenytoin, reference compound]: the “potency of riluzole relative to phenytoin to inhibit activity-regulated Gln/MeAIB transport” value in data set [1] is on record as 50 ×. In data set [1] (setting [3]), the IC50 came out at 57 µM.

Turning to `Nc1nc(-c2ccc(OC(F)(F)F)cc2)c(Cl)s1`, the “fold difference 4-AP IC50” value in data set [1] is recorded as 1.6 x. The IC50 in data set [1] (setting [4]) is 7.4 µM; in data set [1] (setting [5]), 4.6 µM.

With `c1ccc(-c2csc(Nc3ccccn3)n2)cc1` [SKA-265, 4-Phenyl-N-(pyridin-2-yl)thiazol-2-amine], the solubility in data set [2] is 50 µM (≈ 12.7 µg/mL).

On to `Nc1nc(-c2ccc(Cl)cc2)cs1` [SKA-80], for which the concentration in solution in data set [2] (solubility) was 50 µM (≈ 10.5 µg/mL).

Consider `Cc1ccc(-c2csc(N)n2)cc1` [SKA-79], for which, in data set [2], the concentration in solution (solubility) came to 100 µM (≈ 19 µg/mL).

For `Cc1ccc(-c2nc(N)sc2Br)c2ccccc12`, the “fold difference 4-AP IC50” value in data set [1] worked out at 4.4 x. Further, the IC50 in data set [1] (setting [4]) worked out at 4.4 µM; in data set [1] (setting [5]), 1 µM.

`FC(F)(F)c1ccc(Nc2nc(-c3ccccc3)cs2)cc1` [SKA-268, 4-Phenyl-N-(4-(trifluoromethyl)phenyl)thiazol-2-amine]: the melting point worked out at 153 °C. In data set [2], this compound yielded a solubility of 10 µM (≈ 3.2 µg/mL).

On to `Cc1ccc(-c2csc(Nc3ccc(C(F)(F)F)cc3)n2)cc1` [SKA-269, 4-(p-Tolyl)-N-(4-(trifluoromethyl)phenyl)thiazol-2-amine], for which the melting point was 155 °C. In addition, the concentration in solution in data set [2] (solubility) was 10 µM (≈ 3.34 µg/mL).

Turning to `Nc1nc(-c2ccc(-c3ccc(-c4csc(N)n4)cc3)cc2)cs1` [SKA-255], the solubility in data set [2] stood at 10 µM (≈ 3.5 µg/mL).

`Cc1ccc2cccc(-c3csc(N)n3)c2c1` [SKA-193, 4-(7-Methylnaphthalen-1-yl)thiazol-2-amine] returned a melting point of 154 to 156 °C. For the same compound, in data set [1], the “block of transport activity” value was 90%, the inhibition at 10 µM was 90% and the “Active (annotation beside the compound name: active vs inactive derivatives)” value is given as “SKA-193 Active”. Moreover, in data set [1] (screens, 10 μM, GABA 2 mM), the “inhibition … in words” value was “blocked spontaneous transport activity; also recorded: inhibited spontaneous transport activity”. In data set [2], the solubility was found to be 50 µM (≈ 12 µg/mL).

Compound `c1ccc(Nc2nc(-c3cccc4ccccc34)cs2)nc1` [SKA-258, 4-(Naphthalen-1-yl)-N-(pyridin-2-yl)thiazol-2-amine] displayed a melting point of 225 °C. Also, the solubility in data set [2] was determined as 10 µM (≈ 3.03 µg/mL).

`Nc1nc(-c2ccc3ccccc3c2)c(Br)s1` [SKA-220, 5-Bromo-4-(naphthalen-2-yl)thiazol-2-amine] displayed a melting point of 140 to 141 °C. Further, in data set [1], the inhibition at 10 µM is 90%; the “Active (annotation beside the compound name: active vs inactive derivatives)” value is given as “SKA-220 Active”; the “potency to inhibit activity-regulated MeAIB transport relative to a comparator, in words” value is recorded as “as potent as riluzole”. Besides, the “inhibition … in words” value in data set [1] (screens, 10 μM, GABA 2 mM) was “blocked spontaneous transport activity; also recorded: inhibited spontaneous transport activity”. In addition, the solubility in data set [2] was determined as 25 µM (≈ 7.63 µg/mL).

In the case of `Nc1nc(-c2ccc3ccccc3c2)c(Cl)s1` [drawing 71], the “fold difference 4-AP IC50” value in data set [1] was 1.5 x. The IC50 in data set [1] (setting [4]) came out at 9.3 µM; in data set [1] (setting [5]) it was 6.2 µM.

In data set [2], `Nc1nc(-c2ccc(F)cc2)cs1` [SKA-77] had a solubility of 100 µM (≈ 19.4 µg/mL).

The compound `Clc1ccc(Nc2nc(-c3cccc4ccccc34)cs2)cc1Cl` [SKA-257, N-(3,4-Dichlorophenyl)-4-(naphthalen-1-yl)thiazol-2-amine] returned a melting point of 243 to 244 °C. Besides, in data set [2], the concentration in solution (solubility) came to 10 µM (≈ 3.71 µg/mL).

In the case of `Nc1nc(-c2cccc3ccccc23)cs1` [SKA-75, 4-(Naphthalen-1-yl)thiazol-2-amine], in data set [1], the inhibition at 10 µM is greater than 50% and the “potency to inhibit activity-regulated MeAIB transport relative to a comparator, in words” value is listed as “much less potent than riluzole”. Also, the “inhibition … in words” value in data set [1] (screens, 10 μM, GABA 2 mM) is listed as “inhibited spontaneous transport activity”. The compound also gave a solubility in data set [2] of 25 µM (≈ 5.66 µg/mL).

With `Nc1ccncc1` [4-AP, 4-aminopyridine, reference compound], the “maximal stimulation of high-affinity 14C-MeAIB transport” value in data set [1] (200 μM 4-AP) is given as roughly 2 ×.

Regarding `CN[C@H](CC(=O)O)C(=O)O` [NMDA, N-methyl-D-aspartate, reference compound], the “reduction of activity-regulated Gln/MeAIB transport after preconditioning” value in data set [1] is roughly 50%.

On to `Cc1nc(-c2ccccc2)cs1` [SKA-88], for which the concentration in solution in data set [2] (solubility) came to 100 µM (≈ 17.5 µg/mL).

For `N[C@@H](CCC(=O)O)C(=O)O` [Glu, glutamate], the “reduction of activity-regulated Gln/MeAIB transport after preconditioning” value in data set [1] was roughly 50%.

Take `Cc1ccc(-c2nc(N)sc2Cl)c2ccccc12`: in data set [1], the “fold difference 4-AP IC50” value is on record as 5.2 x. The figures for the IC50 in data set [1] (setting [4]) and in data set [1] (setting [5]) were 7.4 µM and 1.4 µM, respectively.

`Cc1nc(-c2ccccc2)c(C)s1` [SKA-89]: in data set [1] (screens, 10 μM, GABA 2 mM), the “inhibition … in words” value is “inactive”. The amount in solution in data set [2] (solubility) came to 100 µM (≈ 18.9 µg/mL).

Compound `Nc1nc(-c2ccccc2)cs1` [SKA-78] came in with a solubility in data set [2] of 100 µM (≈ 17.6 µg/mL).

In data set [2], `Cc1sc(N)nc1-c1ccccc1` [SKA-82] showed a solubility of 100 µM (≈ 19 µg/mL).

`Cc1sc(N)nc1-c1ccc(C)c2ccccc12` [SKA-247, 5-Methyl-4-(4-methylnaphthalen-1-yl)thiazol-2-amine]: in data set [1], the “block of transport activity” value is 90%, the inhibition at 10 µM was 90% and the “Active (annotation beside the compound name: active vs inactive derivatives)” value is reported as “SKA-247 Active”. In addition, the IC50 in data set [1] (setting [3]) is roughly 2 µM. Besides, the “inhibition … in words” value in data set [1] (screens, 10 μM, GABA 2 mM) is on record as “blocked spontaneous transport activity; also recorded: inhibited spontaneous transport activity”. Besides, in data set [2], the concentration in solution (solubility) came to 50 µM (≈ 12.7 µg/mL).

On to `Nc1nc(-c2ccc(-c3csc(N)n3)cc2)cs1` [SKA-230, 4,4′-(1,4-Phenylene)bis(thiazol-2-amine)], for which the melting point came to 350 °C. For the same compound, the solubility in data set [2] is 50 µM (≈ 13.7 µg/mL).

As for `Nc1nc(-c2ccc(-c3ccccc3)cc2)cs1` [SKA-232], the concentration in solution in data set [2] (solubility) was 50 µM (≈ 12.6 µg/mL).

For the compound `Cc1ccc(-c2csc(Nc3cccc(C(F)(F)F)c3)n2)cc1` [SKA-260, 4-(p-Tolyl)-N-(3-(trifluoromethyl)phenyl)thiazol-2-amine], the melting point is 108 °C. Also, the solubility in data set [2] turned out to be 10 µM (≈ 3.34 µg/mL).

On to `COc1ccc(CCN(C)CCCC(C#N)(c2ccc(OC)c(OC)c2)C(C)C)cc1OC` (stereo not drawn) [verapamil, reference compound], for which the “inhibition … in words” value in data set [1] is “blocked”.

For `[Cl-].[K+]` [KCl], the “reduction of activity-regulated Gln/MeAIB transport after preconditioning” value in data set [1] is reported as roughly 50%.
